According to the NIST ThermoML archive (doi:10.1021/je5004912):
Numbers after ± are expanded uncertainties.

Experiment: excess molar enthalpy (molar enthalpy of mixing); xn = mol fraction of the nth substance listed
Details: 101 kPa, Liquid, Flow calorimetry

CC(C)CC(C)(C)C [2,2,4-trimethylpentane] + CCCO
excess molar enthalpy (298.15 K, x1 = 0.05): 0.0208 ± 0.00239 kcal/mol
excess molar enthalpy (298.15 K, x1 = 0.1001): 0.0399 ± 0.00239 kcal/mol
excess molar enthalpy (298.15 K, x1 = 0.1505): 0.0576 ± 0.00263 kcal/mol
excess molar enthalpy (298.15 K, x1 = 0.2003): 0.0736 ± 0.00263 kcal/mol
excess molar enthalpy (298.15 K, x1 = 0.2501): 0.0882 ± 0.00263 kcal/mol
excess molar enthalpy (298.15 K, x1 = 0.2999): 0.102 ± 0.00263 kcal/mol
excess molar enthalpy (298.15 K, x1 = 0.3499): 0.114 ± 0.00263 kcal/mol
excess molar enthalpy (298.15 K, x1 = 0.4006): 0.126 ± 0.00263 kcal/mol
excess molar enthalpy (298.15 K, x1 = 0.4503): 0.136 ± 0.00263 kcal/mol
excess molar enthalpy (298.15 K, x1 = 0.4997): 0.144 ± 0.00263 kcal/mol
excess molar enthalpy (298.15 K, x1 = 0.5504): 0.151 ± 0.00263 kcal/mol
excess molar enthalpy (298.15 K, x1 = 0.5998): 0.155 ± 0.00263 kcal/mol
excess molar enthalpy (298.15 K, x1 = 0.65): 0.157 ± 0.00263 kcal/mol
excess molar enthalpy (298.15 K, x1 = 0.7008): 0.157 ± 0.00263 kcal/mol
excess molar enthalpy (298.15 K, x1 = 0.7502): 0.153 ± 0.00263 kcal/mol
excess molar enthalpy (298.15 K, x1 = 0.7994): 0.146 ± 0.00263 kcal/mol
excess molar enthalpy (298.15 K, x1 = 0.8499): 0.135 ± 0.00263 kcal/mol
excess molar enthalpy (298.15 K, x1 = 0.8998): 0.12 ± 0.00263 kcal/mol
excess molar enthalpy (298.15 K, x1 = 0.9506): 0.0937 ± 0.00263 kcal/mol
excess molar enthalpy (313.15 K, x1 = 0.05): 0.0282 ± 0.00263 kcal/mol
excess molar enthalpy (313.15 K, x1 = 0.1): 0.0543 ± 0.00263 kcal/mol
excess molar enthalpy (313.15 K, x1 = 0.1504): 0.0784 ± 0.00263 kcal/mol
excess molar enthalpy (313.15 K, x1 = 0.2002): 0.1 ± 0.00263 kcal/mol
excess molar enthalpy (313.15 K, x1 = 0.25): 0.12 ± 0.00263 kcal/mol
excess molar enthalpy (313.15 K, x1 = 0.2997): 0.139 ± 0.00263 kcal/mol
excess molar enthalpy (313.15 K, x1 = 0.3498): 0.156 ± 0.00287 kcal/mol
excess molar enthalpy (313.15 K, x1 = 0.4004): 0.172 ± 0.00287 kcal/mol
excess molar enthalpy (313.15 K, x1 = 0.4502): 0.185 ± 0.00287 kcal/mol
excess molar enthalpy (313.15 K, x1 = 0.4995): 0.195 ± 0.00287 kcal/mol
excess molar enthalpy (313.15 K, x1 = 0.5503): 0.203 ± 0.00287 kcal/mol
excess molar enthalpy (313.15 K, x1 = 0.5997): 0.209 ± 0.00287 kcal/mol
excess molar enthalpy (313.15 K, x1 = 0.6498): 0.211 ± 0.00287 kcal/mol
excess molar enthalpy (313.15 K, x1 = 0.7007): 0.211 ± 0.00287 kcal/mol
excess molar enthalpy (313.15 K, x1 = 0.7501): 0.206 ± 0.00287 kcal/mol
excess molar enthalpy (313.15 K, x1 = 0.7993): 0.197 ± 0.00287 kcal/mol
excess molar enthalpy (313.15 K, x1 = 0.8499): 0.184 ± 0.00287 kcal/mol
excess molar enthalpy (313.15 K, x1 = 0.8998): 0.163 ± 0.00287 kcal/mol
excess molar enthalpy (313.15 K, x1 = 0.9506): 0.124 ± 0.00287 kcal/mol

CCCCCCC [heptane] + CCCO
excess molar enthalpy (298.15 K, x1 = 0.0503): 0.0229 ± 0.00239 kcal/mol
excess molar enthalpy (298.15 K, x1 = 0.1002): 0.0435 ± 0.00263 kcal/mol
excess molar enthalpy (298.15 K, x1 = 0.1501): 0.0619 ± 0.00263 kcal/mol
excess molar enthalpy (298.15 K, x1 = 0.2001): 0.0786 ± 0.00263 kcal/mol
excess molar enthalpy (298.15 K, x1 = 0.2499): 0.0935 ± 0.00263 kcal/mol
excess molar enthalpy (298.15 K, x1 = 0.3004): 0.107 ± 0.00263 kcal/mol
excess molar enthalpy (298.15 K, x1 = 0.3505): 0.119 ± 0.00263 kcal/mol
excess molar enthalpy (298.15 K, x1 = 0.4005): 0.13 ± 0.00263 kcal/mol
excess molar enthalpy (298.15 K, x1 = 0.4501): 0.139 ± 0.00263 kcal/mol
excess molar enthalpy (298.15 K, x1 = 0.4997): 0.147 ± 0.00263 kcal/mol
excess molar enthalpy (298.15 K, x1 = 0.5505): 0.153 ± 0.00263 kcal/mol
excess molar enthalpy (298.15 K, x1 = 0.5996): 0.157 ± 0.00263 kcal/mol
excess molar enthalpy (298.15 K, x1 = 0.6506): 0.158 ± 0.00263 kcal/mol
excess molar enthalpy (298.15 K, x1 = 0.7005): 0.157 ± 0.00263 kcal/mol
excess molar enthalpy (298.15 K, x1 = 0.7504): 0.153 ± 0.00263 kcal/mol
excess molar enthalpy (298.15 K, x1 = 0.8001): 0.145 ± 0.00263 kcal/mol
excess molar enthalpy (298.15 K, x1 = 0.8493): 0.134 ± 0.00263 kcal/mol
excess molar enthalpy (298.15 K, x1 = 0.8993): 0.118 ± 0.00263 kcal/mol
excess molar enthalpy (298.15 K, x1 = 0.9503): 0.0913 ± 0.00263 kcal/mol
excess molar enthalpy (313.15 K, x1 = 0.0503): 0.0292 ± 0.00263 kcal/mol
excess molar enthalpy (313.15 K, x1 = 0.1001): 0.0564 ± 0.00263 kcal/mol
excess molar enthalpy (313.15 K, x1 = 0.15): 0.081 ± 0.00263 kcal/mol
excess molar enthalpy (313.15 K, x1 = 0.2): 0.103 ± 0.00263 kcal/mol
excess molar enthalpy (313.15 K, x1 = 0.2498): 0.124 ± 0.00263 kcal/mol
excess molar enthalpy (313.15 K, x1 = 0.3004): 0.142 ± 0.00263 kcal/mol
excess molar enthalpy (313.15 K, x1 = 0.3503): 0.159 ± 0.00287 kcal/mol
excess molar enthalpy (313.15 K, x1 = 0.4003): 0.174 ± 0.00287 kcal/mol
excess molar enthalpy (313.15 K, x1 = 0.4498): 0.186 ± 0.00287 kcal/mol
excess molar enthalpy (313.15 K, x1 = 0.4996): 0.196 ± 0.00287 kcal/mol
excess molar enthalpy (313.15 K, x1 = 0.5503): 0.203 ± 0.00287 kcal/mol
excess molar enthalpy (313.15 K, x1 = 0.5995): 0.208 ± 0.00287 kcal/mol
excess molar enthalpy (313.15 K, x1 = 0.6505): 0.211 ± 0.00287 kcal/mol
excess molar enthalpy (313.15 K, x1 = 0.7004): 0.209 ± 0.00287 kcal/mol
excess molar enthalpy (313.15 K, x1 = 0.7503): 0.204 ± 0.00287 kcal/mol
excess molar enthalpy (313.15 K, x1 = 0.8): 0.195 ± 0.00287 kcal/mol
excess molar enthalpy (313.15 K, x1 = 0.8492): 0.18 ± 0.00287 kcal/mol
excess molar enthalpy (313.15 K, x1 = 0.8993): 0.16 ± 0.00287 kcal/mol
excess molar enthalpy (313.15 K, x1 = 0.9503): 0.123 ± 0.00287 kcal/mol

C=CCCCC [hex-1-ene] + CCCO
excess molar enthalpy (298.15 K, x1 = 0.0501): 0.0146 ± 0.00239 kcal/mol
excess molar enthalpy (298.15 K, x1 = 0.1003): 0.0301 ± 0.00239 kcal/mol
excess molar enthalpy (298.15 K, x1 = 0.1501): 0.0459 ± 0.00239 kcal/mol
excess molar enthalpy (298.15 K, x1 = 0.2002): 0.0612 ± 0.00263 kcal/mol
excess molar enthalpy (298.15 K, x1 = 0.2501): 0.0762 ± 0.00263 kcal/mol
excess molar enthalpy (298.15 K, x1 = 0.3004): 0.0913 ± 0.00263 kcal/mol
excess molar enthalpy (298.15 K, x1 = 0.3501): 0.106 ± 0.00263 kcal/mol
excess molar enthalpy (298.15 K, x1 = 0.4007): 0.119 ± 0.00263 kcal/mol
excess molar enthalpy (298.15 K, x1 = 0.4501): 0.132 ± 0.00263 kcal/mol
excess molar enthalpy (298.15 K, x1 = 0.5001): 0.142 ± 0.00263 kcal/mol
excess molar enthalpy (298.15 K, x1 = 0.5504): 0.152 ± 0.00263 kcal/mol
excess molar enthalpy (298.15 K, x1 = 0.5998): 0.159 ± 0.00287 kcal/mol
excess molar enthalpy (298.15 K, x1 = 0.6505): 0.163 ± 0.00287 kcal/mol
excess molar enthalpy (298.15 K, x1 = 0.6998): 0.165 ± 0.00287 kcal/mol
excess molar enthalpy (298.15 K, x1 = 0.75): 0.163 ± 0.00287 kcal/mol
excess molar enthalpy (298.15 K, x1 = 0.7999): 0.158 ± 0.00287 kcal/mol
excess molar enthalpy (298.15 K, x1 = 0.8505): 0.147 ± 0.00263 kcal/mol
excess molar enthalpy (298.15 K, x1 = 0.9004): 0.131 ± 0.00263 kcal/mol
excess molar enthalpy (298.15 K, x1 = 0.9508): 0.102 ± 0.00263 kcal/mol
excess molar enthalpy (313.15 K, x1 = 0.0501): 0.022 ± 0.00263 kcal/mol
excess molar enthalpy (313.15 K, x1 = 0.1002): 0.0445 ± 0.00263 kcal/mol
excess molar enthalpy (313.15 K, x1 = 0.1501): 0.0667 ± 0.00263 kcal/mol
excess molar enthalpy (313.15 K, x1 = 0.2001): 0.0884 ± 0.00263 kcal/mol
excess molar enthalpy (313.15 K, x1 = 0.2499): 0.109 ± 0.00263 kcal/mol
excess molar enthalpy (313.15 K, x1 = 0.3003): 0.13 ± 0.00263 kcal/mol
excess molar enthalpy (313.15 K, x1 = 0.3499): 0.148 ± 0.00287 kcal/mol
excess molar enthalpy (313.15 K, x1 = 0.4006): 0.166 ± 0.00287 kcal/mol
excess molar enthalpy (313.15 K, x1 = 0.4499): 0.181 ± 0.00287 kcal/mol
excess molar enthalpy (313.15 K, x1 = 0.4998): 0.195 ± 0.00287 kcal/mol
excess molar enthalpy (313.15 K, x1 = 0.5502): 0.206 ± 0.00287 kcal/mol
excess molar enthalpy (313.15 K, x1 = 0.5996): 0.214 ± 0.00287 kcal/mol
excess molar enthalpy (313.15 K, x1 = 0.6503): 0.218 ± 0.00287 kcal/mol
excess molar enthalpy (313.15 K, x1 = 0.6996): 0.22 ± 0.00287 kcal/mol
excess molar enthalpy (313.15 K, x1 = 0.75): 0.217 ± 0.00287 kcal/mol
excess molar enthalpy (313.15 K, x1 = 0.7998): 0.209 ± 0.00287 kcal/mol
excess molar enthalpy (313.15 K, x1 = 0.8505): 0.195 ± 0.00287 kcal/mol
excess molar enthalpy (313.15 K, x1 = 0.9004): 0.172 ± 0.00287 kcal/mol
excess molar enthalpy (313.15 K, x1 = 0.9508): 0.131 ± 0.00287 kcal/mol
